Measurements from patent US20240024520A1, “AUTONOMOUS KNOB DOMAIN PEPTIDES” (UCB BIOPHARMA SRL, priority 2020, published 2024).
Bridge positions count the residues as written; N and C are the ends. Ends that are not written are not given here. * marks the point of attachment. Palmitoyl = CCCCCCCCCCCCCCCC(=O)*

Columns and labels:
[1] = In vivo pharmacokinetics after intravenous bolus; conditions: rat, plasma; 1 mg/kg intravenous; male Sprague-Dawley rats; read-out: plasma clearance [C1p]
Procedure: Plasma pharmacokinetics was studied for each peptide in male Sprague-Dawley rats of a body weight between 324 and 425 g. Drug was administered intravenously via the tail vein. […] Blood samples were taken at 7 minutes, 15 minutes, 30 minutes, followed by 1, 2, 4, 8 and 24 hours. Blood was collected into Li Heparin tubes and spun to prepare plasma samples for bioanalysis. Bioanalytical data was analysed on an individual animal basis using Pharsight Phoenix 64 Build 8.1. Non-compartmental analysis was conducted and mean pharmacokinetic parameters for each drug calculated.

C5 = C5 (Homo sapiens, UniProt P01031); experiment: Biacore multi-cycle kinetics on human C5; format: binding; conditions: for binding to human C5: chemical knob domains and variants, result in words; for mean stoichiometric ratio: measured Rmax divided by theoretical Rmax, n = 3 experiments; for koff: read-out: mean Koff, multi-cycle kinetics, n = 3 experiments; for kon: read-out: mean Kon, multi-cycle kinetics, n = 3 experiments
Outline: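 SPR, multi-cycle kinetics: human C5 amine-coupled to CM5 chip (2000-3000 RU, pH 4.5 acetate). Serial peptide dilutions in HBS-EP, 240 s contact, 6000 s dissociation; 2M MgCl2 regeneration. Reference-subtracted data fitted to single-site binding model.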

[2] = relative to unmodified peptide
rat C5 protein = rat C5 protein (Rattus norvegicus, UniProt P08650); experiment: Biacore kinetics on rat C5 (cross-reactivity); format: binding; conditions: SPR
Procedure: Kinetics were measured using a Biacore 8K (GE Healthcare) with a CM5 chip, which was prepared as follows: EDC/NHS was mixed at 1:1 ratio (flow rate, 10 μL/min; contact time, 30 seconds), rat C5 protein at 1 ug/mL in pH 4.5 sodium-acetate buffer, were injected over flow cell one only (flow rate, 10 μL/min; contact time, 60 seconds). Final immobilization levels in the range of 2000-3000 response units (RU) were obtained, to yield theoretical Rmax values of ˜50-60 RU. Serial dilutions of peptide were prepared in HBS-EP buffer and injected (flow rate, 30 μL/min; contact time, 240 seconds; dissociation time, 6000 seconds). After each injection, the surface was regenerated with two sequential injections of 2M MgCl2 (flow rate, […]; contact time, 30 seconds). Binding to the reference surface was subtracted, and the data were fitted to a single site binding model, using Biacore evaluation software.

[3] = tested on: antibody-sensitized sheep red blood cells; experiment: Classical pathway haemolysis assay; format: cell-based; conditions: normal human sera; result in words
Procedure: (§1) Haemolysis assays: For AP, 50 μL of 24% normal human sera (Complement Technology), 50 of 20 mM MgEGTA (Complement Technology), and 48 μL of GVB0 buffer (0.1% gelatin, […], 145 mM NaCl, 0.025% NaN3, pH 7.3, Complement Technology) were aliquoted into a single well of a 96-well tissue culture plate (USA Scientific) then mixed with 2 μL of inhibitors serially diluted in DMSO. Following equilibration for 15 minutes at room temperature, 50 μL of rabbit erythrocytes (Complement Technology), at 2.5×10^7 per well, were added to the plates, which were then incubated at 37° C. for 30 minutes. Plates were centrifuged at 1,000×g for 3 min and 100 μL of supernatant was collected, transferred to another 96-well tissue culture treated plate, and absorbance was measured at 412 nm. For CP, […], 48 μL of GVB++ buffer (0.1% gelatin, 5 mM Veronal, 145 mM NaCl, 0.025% NaN3, pH 7.3 with 0.15 mM CaCl2 and 0.5 mM MgCl2, Complement Technology) and 2 μL of inhibitors serially diluted in DMSO were aliquoted into a single well and equilibrated as described. Next, 100 μL of antibody-sensitized sheep red blood cells (Complement Technology) at 5×10^7 per well were added to the plate, which was then incubated at 37° C. for 1 hour. Samples were subsequently processed as described.

[4] = tested on: Alternative pathway C5b deposition; experiment: Alternative pathway C5b (neo-epitope) deposition ELISA, SVAR kit; format: biochemical, human; conditions: chemFE peptides, Example 10; result in words
Text: (§2) To elucidate the functional consequences of the knob domain peptides binding to human C5, we performed complement activation assays using the SVAR complement activation ELISA which measured CP (Classical Pathway) and AP (Alternative Pathway) activation in human serum, through formation of the C5b neo-epitope. We also developed orthogonal ELISA assays which measured total complement and AP specific mediated C3b and MAC (Membrane Attack Complex) deposition. For all activation conditions, we also tracked C5a release via ELISA.
(§3) For the C5b ELISA, assays were run using the CP and AP Complement functional ELISA kits (SVAR), as per the manufacturer's protocol. For sample preparation: serum was diluted as per the respective protocol for the CP and AP assays. Titrations of peptides were prepared and allowed to incubate for 15 minutes at room temperature, prior to plating.
(§4) Functional activity of chemically derived knob domain peptides was confirmed in a complement activation ELISAs which measured inhibition of C5b neoepitope deposition.
(§5) Finally, we tested our constructs in AP and CP complement activation ELISAs, which measured C5b neoepitope deposition.
(§6) Complement ELISA: assays were run using the CP and AP Complement functional ELISA kits (SVAR, COMPL 300 RUO), as per the manufacturer's protocol. For sample preparation, serum was diluted as per the respective protocol for the CP and AP assays; serial dilutions of peptides were prepared and allowed to incubate with serum for 15 minutes at room temperature, prior to plating.

[5] = tested on: Classical pathway C5b deposition; experiment: Classical pathway C5b (neo-epitope) deposition ELISA, SVAR kit; format: biochemical, human; conditions: chemFE peptides, Example 10; result in words
Text: as §2, §3, §4, §5, §6

rabbit erythrocytes = experiment: Alternative pathway haemolysis assay; format: cell-based; conditions: normal human sera; result in words
Procedure: as §1

Chain of C5 (P01031 19-1676): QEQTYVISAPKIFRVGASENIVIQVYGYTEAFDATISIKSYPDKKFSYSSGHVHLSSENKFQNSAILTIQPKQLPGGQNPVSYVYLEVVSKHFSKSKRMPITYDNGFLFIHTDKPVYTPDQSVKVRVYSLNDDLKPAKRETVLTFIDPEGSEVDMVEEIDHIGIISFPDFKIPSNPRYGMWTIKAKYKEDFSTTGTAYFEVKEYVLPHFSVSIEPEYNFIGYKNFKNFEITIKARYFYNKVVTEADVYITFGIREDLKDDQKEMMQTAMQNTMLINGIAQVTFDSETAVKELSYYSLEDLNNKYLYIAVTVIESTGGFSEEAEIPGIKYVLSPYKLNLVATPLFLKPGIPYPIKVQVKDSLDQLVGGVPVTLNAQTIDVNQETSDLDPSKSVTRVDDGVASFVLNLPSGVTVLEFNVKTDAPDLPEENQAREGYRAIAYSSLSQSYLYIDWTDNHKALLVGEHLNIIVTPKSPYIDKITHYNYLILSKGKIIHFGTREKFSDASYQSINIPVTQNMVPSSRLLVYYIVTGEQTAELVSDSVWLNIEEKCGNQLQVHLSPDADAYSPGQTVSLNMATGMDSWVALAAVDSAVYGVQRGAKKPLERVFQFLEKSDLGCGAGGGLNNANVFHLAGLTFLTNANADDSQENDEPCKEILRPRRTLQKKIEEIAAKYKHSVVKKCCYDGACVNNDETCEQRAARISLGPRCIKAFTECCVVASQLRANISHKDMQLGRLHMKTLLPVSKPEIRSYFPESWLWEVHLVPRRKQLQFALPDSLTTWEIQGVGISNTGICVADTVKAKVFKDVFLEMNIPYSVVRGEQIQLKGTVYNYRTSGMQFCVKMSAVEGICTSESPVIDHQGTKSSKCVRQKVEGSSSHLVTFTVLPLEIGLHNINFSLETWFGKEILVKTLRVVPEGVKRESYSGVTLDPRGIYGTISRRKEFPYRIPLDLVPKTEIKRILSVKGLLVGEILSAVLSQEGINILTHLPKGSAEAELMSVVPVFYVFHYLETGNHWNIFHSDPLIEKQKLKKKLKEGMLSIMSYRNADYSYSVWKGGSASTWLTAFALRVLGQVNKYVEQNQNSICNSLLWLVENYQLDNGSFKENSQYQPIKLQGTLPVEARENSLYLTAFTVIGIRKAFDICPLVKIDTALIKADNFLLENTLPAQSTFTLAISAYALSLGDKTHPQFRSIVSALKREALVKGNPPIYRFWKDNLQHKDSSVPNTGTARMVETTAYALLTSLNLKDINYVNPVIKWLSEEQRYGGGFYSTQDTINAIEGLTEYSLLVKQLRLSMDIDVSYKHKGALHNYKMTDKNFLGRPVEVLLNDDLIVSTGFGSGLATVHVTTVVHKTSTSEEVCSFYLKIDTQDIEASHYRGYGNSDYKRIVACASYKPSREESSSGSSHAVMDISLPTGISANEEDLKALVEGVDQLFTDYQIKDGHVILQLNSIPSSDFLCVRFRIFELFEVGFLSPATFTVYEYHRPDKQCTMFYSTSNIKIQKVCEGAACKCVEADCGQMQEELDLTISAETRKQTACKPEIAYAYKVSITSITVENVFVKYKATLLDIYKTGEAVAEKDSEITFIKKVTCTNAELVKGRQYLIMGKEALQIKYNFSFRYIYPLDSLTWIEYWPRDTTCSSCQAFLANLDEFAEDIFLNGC
Chain of rat C5 protein (P08650 19-1681): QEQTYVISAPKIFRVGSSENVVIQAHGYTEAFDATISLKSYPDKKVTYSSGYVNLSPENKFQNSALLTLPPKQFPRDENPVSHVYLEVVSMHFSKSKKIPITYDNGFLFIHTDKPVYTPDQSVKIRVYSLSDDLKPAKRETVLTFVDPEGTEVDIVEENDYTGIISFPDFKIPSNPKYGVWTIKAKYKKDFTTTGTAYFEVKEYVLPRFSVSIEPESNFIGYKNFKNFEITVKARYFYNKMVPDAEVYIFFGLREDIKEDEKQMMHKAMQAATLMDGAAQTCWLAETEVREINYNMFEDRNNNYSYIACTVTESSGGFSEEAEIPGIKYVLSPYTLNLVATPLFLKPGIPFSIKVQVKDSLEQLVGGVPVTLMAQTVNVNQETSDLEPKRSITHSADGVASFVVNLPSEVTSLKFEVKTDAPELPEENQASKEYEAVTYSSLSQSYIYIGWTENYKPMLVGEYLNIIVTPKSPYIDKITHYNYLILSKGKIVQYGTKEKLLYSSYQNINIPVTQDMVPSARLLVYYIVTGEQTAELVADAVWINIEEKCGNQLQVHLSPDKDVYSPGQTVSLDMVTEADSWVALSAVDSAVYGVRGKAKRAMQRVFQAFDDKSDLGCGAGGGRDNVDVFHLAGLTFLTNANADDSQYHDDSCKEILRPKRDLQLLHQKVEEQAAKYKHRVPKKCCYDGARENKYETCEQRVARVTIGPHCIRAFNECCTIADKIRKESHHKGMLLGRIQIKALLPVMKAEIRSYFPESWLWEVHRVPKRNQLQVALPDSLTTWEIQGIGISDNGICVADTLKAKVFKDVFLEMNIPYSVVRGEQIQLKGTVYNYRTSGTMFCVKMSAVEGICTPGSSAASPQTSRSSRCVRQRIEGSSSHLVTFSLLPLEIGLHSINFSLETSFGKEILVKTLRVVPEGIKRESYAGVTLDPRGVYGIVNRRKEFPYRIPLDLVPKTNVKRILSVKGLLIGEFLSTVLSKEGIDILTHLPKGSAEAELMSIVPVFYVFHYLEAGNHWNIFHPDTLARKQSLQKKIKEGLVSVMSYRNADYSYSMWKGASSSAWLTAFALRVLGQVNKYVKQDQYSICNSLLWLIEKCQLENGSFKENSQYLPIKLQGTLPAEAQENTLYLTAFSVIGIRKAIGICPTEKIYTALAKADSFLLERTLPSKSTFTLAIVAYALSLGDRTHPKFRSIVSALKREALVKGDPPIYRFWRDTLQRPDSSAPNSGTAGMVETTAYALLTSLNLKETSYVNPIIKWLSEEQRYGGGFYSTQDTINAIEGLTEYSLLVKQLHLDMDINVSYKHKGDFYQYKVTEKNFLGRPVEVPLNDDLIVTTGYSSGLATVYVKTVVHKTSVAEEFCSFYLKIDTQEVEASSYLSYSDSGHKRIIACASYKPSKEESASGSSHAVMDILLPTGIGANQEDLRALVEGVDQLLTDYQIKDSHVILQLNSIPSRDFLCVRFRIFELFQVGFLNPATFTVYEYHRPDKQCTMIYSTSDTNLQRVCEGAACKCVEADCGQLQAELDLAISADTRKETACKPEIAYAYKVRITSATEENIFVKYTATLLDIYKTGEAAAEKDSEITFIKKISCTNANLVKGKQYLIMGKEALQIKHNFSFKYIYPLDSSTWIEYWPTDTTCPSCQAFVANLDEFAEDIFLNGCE

| Substance | clearance [1] [mL/min/kg] | binding to human C5 (C5) | solubility [2] | mean stoichiometric ratio (C5) | koff (C5) [s⁻¹] | kon (C5) [M⁻¹ s⁻¹] | cross reactivity with rat C5 protein (rat C5 protein) | inhibition of haemolysis, CP [3] | inhibition of AP, C5b deposition [4] | inhibition of CP, C5b deposition [5] | inhibition of haemolysis, AP (rabbit erythrocytes) | cross reactivity with rat C5 protein (rat C5 protein; listed as K8chem) |
| --- | --- | --- | --- | --- | --- | --- | --- | --- | --- | --- | --- | --- |
| Palmitoyl-GCPPGYKSGVDCSPGSECKWGCYAVDGRRYGGYGADSGVGS-OH (disulfide 2-18, 12-22) [K57 chemFE-Palmitoyl] | 0.8 | unaffected | reduced solubility | – | – | – | – | – | – | – | – | – |
| GCPPGYKSGVDCSPGSECKWGCYAVDGRRYGGYGADSGVGS-OH (disulfide 2-18, 12-22) [K57chemFE] | – | – | – | 0.65 | 0.000579 | 260000 | specific for human C5 | potent and fully efficacious inhibitor | potent and fully efficacious inhibitor | potent and fully efficacious inhibitor | potent and fully efficacious inhibitor | – |
| VCPDGFNWGYGCAAGSSRFCTRHDWCCYDERADSHTYGFCTGNRV-OH (disulfide 2-26, 12-40, 20-27) [K8chemFE] | – | – | – | 0.25 | 0.000385 | 70500 | tightly bound | – | partial inhibitor | partial inhibitor | – | cross reactive |
| K8 chemFE cyclic: cyclic peptide from head-to-tail cyclisation of the K8chemFE knob domain (cyclo(VCPDGFNWGYGCAAGSSRFCTRHDWCCYDERADSHTYGFCTGNRV); also: disulphides formed by free energy method, pairing not given here) | – | bound human C5 | – | – | – | – | – | functionally active complement inhibitor | – | – | functionally active complement inhibitor | – |
